For this assay, the system named is BDF1 mice, P388 leukemia ip, median survival T/C. Description: NCI In Vivo Anticancer Drug Screen. Data for tumor model P388 Leukemia (intraperitoneal) in B6D2F1 (BDF1) mice. The following applies: endpoint: median survival time, higher = longer survival. Put shortly:
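Steps: implant the tumour, treat one group with compound and another with vehicle, record survival, then divide treated by control.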

[1] abbreviates: dose: 100.0 mg/kg/injection, schedule: Q01DX001 (ip), vehicle: Klucel (hydroxypropylcellulose) (HPC).
[2] abbreviates: dose: 200.0 mg/kg/injection, schedule: Q01DX001 (ip), vehicle: Klucel (hydroxypropylcellulose) (HPC).
Where [3] appears, read: dose: 400.0 mg/kg/injection, schedule: Q01DX001 (ip), vehicle: Klucel (hydroxypropylcellulose) (HPC).
Where [4] appears, read: dose: 100.0 mg/kg/injection, schedule: Q01DX009 (ip), vehicle: saline with Tween-80.
[5] abbreviates: dose: 200.0 mg/kg/injection, schedule: Q01DX009 (ip), vehicle: saline with Tween-80.
[6] abbreviates: dose: 25.0 mg/kg/injection, schedule: Q04DX003 (ip), vehicle: saline with Tween-80.
The mark [7] stands for this setting: dose: 100.0 mg/kg/injection, schedule: Q04DX003 (ip), vehicle: Klucel (hydroxypropylcellulose) (HPC).
Where [8] appears, read: dose: 200.0 mg/kg/injection, schedule: Q04DX003 (ip), vehicle: Klucel (hydroxypropylcellulose) (HPC).
The mark [9] stands for this setting: dose: 6.25 mg/kg/injection, schedule: Q01DX009 (ip), vehicle: Klucel (hydroxypropylcellulose) (HPC).
Where [10] appears, read: dose: 12.5 mg/kg/injection, schedule: Q01DX009 (ip), vehicle: Klucel (hydroxypropylcellulose) (HPC).
The mark [11] stands for this setting: dose: 25.0 mg/kg/injection, schedule: Q01DX009 (ip), vehicle: Klucel (hydroxypropylcellulose) (HPC).
Setting [12] is: dose: 50.0 mg/kg/injection, schedule: Q01DX009 (ip), vehicle: saline with Tween-80.
The mark [13] stands for this setting: dose: 50.0 mg/kg/injection, schedule: Q04DX003 (ip), vehicle: Klucel (hydroxypropylcellulose) (HPC).

Where “and” joins values, the source holds several entries; their conditions need not be identical. Identical values can stand only once. Inconclusive results and toxic doses are left out.

Take `COc1ccc(C=NCCN=Cc2ccc(OC)cc2)cc1`: the T/C was 109 % of control under setting [1], 100 % of control under setting [2] and 95 % of control under setting [3].

On to `c1ccc2c(c1)ccc1cc3c(ccc4ccccc43)cc12`, for which the T/C under setting [4] was 120 % of control; the T/C (dose: 100.0 mg/kg/injection, schedule: Q04DX003 (ip), vehicle: saline with Tween-80) is 118 % of control; the T/C under setting [5] is 112 % of control; the T/C (dose: 200.0 mg/kg/injection, schedule: Q04DX003 (ip), vehicle: saline with Tween-80) is 109 % of control; the T/C (dose: 400.0 mg/kg/injection, schedule: Q04DX003 (ip), vehicle: saline with Tween-80) was 109 % of control.

As to `FC(F)(F)c1ccc2c(c1)N(CCCN1CCN(CCOc3ccccc3)CC1)c1ccccc1S2`, the T/C is 96 % of control and 115 % of control (dose: 6.25 mg/kg/injection, schedule: Q04DX003 (ip), vehicle: saline with Tween-80); 93 % of control and 115 % of control (dose: 12.5 mg/kg/injection, schedule: Q04DX003 (ip), vehicle: saline with Tween-80); 114 % of control and 122 % of control under setting [6].

In the case of `COc1cccc2c1C(=O)c1c(O)c3c(c(O)c1C2=O)CC(O)(/C(C)=N/NC(=O)c1cc(C(F)(F)F)cc(C(F)(F)F)c1)CC3OC1CC(N)C(O)C(C)O1` (centres undefined), the T/C is 113 % of control (dose: 3.13 mg/kg/injection, schedule: Q04DX003 (ip), vehicle: water); 109 % of control (dose: 6.25 mg/kg/injection, schedule: Q04DX003 (ip), vehicle: water); 153 % of control (dose: 12.5 mg/kg/injection, schedule: Q04DX003 (ip), vehicle: water); 153 % of control (dose: 25.0 mg/kg/injection, schedule: Q04DX003 (ip), vehicle: water); 118 % of control (dose: 50.0 mg/kg/injection, schedule: Q04DX003 (ip), vehicle: water).

`c1ccc([P+](C[P+](c2ccccc2)(c2ccccc2)c2ccccc2)(c2ccccc2)c2ccccc2)cc1`: the T/C by setting is: (dose: 0.39 mg/kg/injection, schedule: Q01DX009 (ip), vehicle: Klucel (hydroxypropylcellulose) (HPC)) 109 % of control; (dose: 0.78 mg/kg/injection, schedule: Q01DX009 (ip), vehicle: Klucel (hydroxypropylcellulose) (HPC)) 109 % of control; (dose: 1.56 mg/kg/injection, schedule: Q01DX009 (ip), vehicle: Klucel (hydroxypropylcellulose) (HPC)) 118 % of control; (dose: 1.72 mg/kg/injection, schedule: Q04DX003 (ip), vehicle: Klucel (hydroxypropylcellulose) (HPC)) 109 % of control; (dose: 2.3 mg/kg/injection, schedule: Q01DX009 (ip), vehicle: Klucel (hydroxypropylcellulose) (HPC)) 115 % of control; (dose: 3.45 mg/kg/injection, schedule: Q04DX003 (ip), vehicle: Klucel (hydroxypropylcellulose) (HPC)) 122 % of control. Moreover, the T/C (dose: 6.9 mg/kg/injection, schedule: Q04DX003 (ip), vehicle: Klucel (hydroxypropylcellulose) (HPC)) was 90 % of control.

Turning to `CC12C(C#N)=C(c3ccccc3)C=C(c3ccccc3)C1=C(c1ccccc1)c1ccccc12` (centres undefined), the T/C is 108 % of control under setting [7]; 95 % of control under setting [8]; 91 % of control (dose: 400.0 mg/kg/injection, schedule: Q04DX003 (ip), vehicle: Klucel (hydroxypropylcellulose) (HPC)).

For the molecule `CN1CCN(c2nc3cccnc3s2)CC1`, the T/C (dose: 100.0 mg/kg/injection, schedule: Q04DX003 (ip), vehicle: saline) is 93 % of control.

For the molecule `COc1cc2oc3c(c(=O)c2c(O)c1/C=C/C(C)C)CCC(C)(C)Oc1cc(O)ccc1-3`, the T/C by setting is: (dose: 3.13 mg/kg/injection, schedule: Q01DX009 (ip), vehicle: Klucel (hydroxypropylcellulose) (HPC)) 96 % of control; under setting [9], 94 % of control; under setting [10], 94 % of control; under setting [11], 103 % of control.

For `C=C(C)C12OC3(c4ccccc4)OC1C1C4OC4(CO)C(O)C4(O)C(=O)C(C)=CC4C1(O3)C(C)C2OC(=O)c1ccccc1` (centres undefined), the T/C was 106 % of control (dose: 6.3 micrograms/kg/injection, schedule: Q01DX009 (ip), vehicle: saline + alcohol); 108 % of control (dose: 12.5 micrograms/kg/injection, schedule: Q01DX009 (ip), vehicle: saline + alcohol); 150 % of control (dose: 200.0 micrograms/kg/injection, schedule: Q01DX009 (ip), vehicle: saline + alcohol).

For the molecule `O=C1C=C(Nc2ccc(F)cc2)C(Nc2ccc(F)cc2)=CC1=O`, the T/C is, setting by setting: (dose: 87.5 mg/kg/injection, schedule: Q01DX009 (ip), vehicle: saline with Tween-80) 87 % of control; (dose: 350.0 mg/kg/injection, schedule: Q01DX009 (ip), vehicle: saline with Tween-80) 91 % of control.

As to `Cc1cc(Cl)c2ccccc2c1N`, the T/C is 100 % of control (dose: 44.0 mg/kg/injection, schedule: Q01DX009 (ip), vehicle: other); 110 % of control (dose: 66.0 mg/kg/injection, schedule: Q01DX009 (ip), vehicle: other); 115 % of control (dose: 100.0 mg/kg/injection, schedule: Q01DX009 (ip), vehicle: other); 110 % of control (dose: 150.0 mg/kg/injection, schedule: Q01DX009 (ip), vehicle: other).

On to `CC(=O)OC12C3CCCC1CCCC2CCC3` (centres undefined), for which the T/C under setting [1] was 100 % of control, the T/C under setting [2] is 100 % of control and the T/C under setting [3] is 100 % of control.

Regarding `O=[N+]([O-])c1ccc(S(=O)(=O)Oc2ccccc2)cc1`, the T/C under setting [12] is 105 % of control; the T/C under setting [13] was 100 % of control; the T/C under setting [4] is 100 % of control; the T/C under setting [7] was 105 % of control; the T/C under setting [5] was 105 % of control; the T/C under setting [8] was 105 % of control.

Regarding `CN(C)CCOc1cccc(OCCN(C)C)n1`, the T/C by setting is: (dose: 25.0 mg/kg/injection, schedule: Q01DX009 (ip), vehicle: saline with Tween-80) 100 % of control; under setting [6], 87 % of control; under setting [12], 95 % of control; (dose: 50.0 mg/kg/injection, schedule: Q04DX003 (ip), vehicle: saline with Tween-80) 91 % of control.

Regarding `NC(=O)NN=C1CCCCC1`, the T/C runs as follows: (dose: 17.5 mg/kg/injection, schedule: Q01DX009 (ip), vehicle: Klucel (hydroxypropylcellulose) (HPC)) 90 % of control; (dose: 26.25 mg/kg/injection, schedule: Q04DX003 (ip), vehicle: Klucel (hydroxypropylcellulose) (HPC)) 100 % of control; (dose: 35.0 mg/kg/injection, schedule: Q01DX009 (ip), vehicle: Klucel (hydroxypropylcellulose) (HPC)) 122 % of control; (dose: 52.5 mg/kg/injection, schedule: Q04DX003 (ip), vehicle: Klucel (hydroxypropylcellulose) (HPC)) 100 % of control.

Take `COc1ccc(C(SCC(N)C(=O)O)(c2ccccc2)c2ccccc2)cc1` (centres undefined): the T/C (dose: 1.3 mg/kg/injection, schedule: Q01DX009 (ip), vehicle: Klucel (hydroxypropylcellulose) (HPC)) was 117 % of control; the T/C (dose: 2.0 mg/kg/injection, schedule: Q01DX009 (ip), vehicle: Klucel (hydroxypropylcellulose) (HPC)) is 113 % of control; the T/C (dose: 4.12 mg/kg/injection, schedule: Q01DX009 (ip), vehicle: Klucel (hydroxypropylcellulose) (HPC)) is 155 % of control; the T/C under setting [9] is 160 % of control and 168 % of control and 175 % of control; the T/C under setting [10] was 200 % of control; the T/C under setting [11] was 250 % of control. Besides, the T/C is, setting by setting: (dose: 25.0 mg/kg/injection, schedule: Q04DX003 (ip), vehicle: Klucel (hydroxypropylcellulose) (HPC)) 155 % of control; (dose: 33.0 mg/kg/injection, schedule: Q04DX003 (ip), vehicle: Klucel (hydroxypropylcellulose) (HPC)) 154 % of control; (dose: 50.0 mg/kg/injection, schedule: Q01DX009 (ip), vehicle: Klucel (hydroxypropylcellulose) (HPC)) 105 % of control; under setting [13], 170 % of control and 185 % of control; (dose: 66.0 mg/kg/injection, schedule: Q04DX003 (ip), vehicle: Klucel (hydroxypropylcellulose) (HPC)) 272 % of control; under setting [7], 240 % of control and 205 % of control.

Source of the values: PubChem BioAssay AID328 (DTP/NCI, 2004).
